Measurements reported in PMC7146544, “Dual Plasmepsin-Targeting Antimalarial Agents Disrupt Multiple Stages of the Malaria Parasite Life Cycle” (Cell Host & Microbe, 2020).
Like-named read-outs stand apart in the source and are kept apart here.

How the values were obtained:
3D7 parasite cultures = experiment: Time of drug killing; assay type: cell-based, Plasmodium falciparum; conditions: 80nM WM4, 40nM WM5, 5nM WM382, added to early rings
Procedure: 3D7 parasite cultures were synchronized using 5% sorbitol (Sigma) twice at 46 h intervals then again when the culture was a mix of late schizonts and early rings. […] The parasitemia of each culture was quantitated every 8 h for 48 h by collecting 50 μL samples for counting by flow cytometry (as previously described). The developmental stage of the parasites was confirmed at each time point by microscopic examination of Giemsa stained thin blood films. Media and compound were replaced at the 32 h time point.

[1] = Pharmacokinetic attributes (no method given); conditions: in vivo
P. knowlesi = P. knowlesi drug sensitivity assay; assay type: cell-based, Plasmodium knowlesi; conditions: 48 h, blood stage parasites, read-out: EC50, inhibition of P. knowlesi growth
Procedure: The drug sensitivity assays were performed in 96-well plates using 50 μL culture at 0.5% parasitemia and 2% hematocrit. The compounds were serially diluted in 1% DMSO. Parasite growth assays were performed for 48 h. Parasite cultures were then fixed with 50 μL 0.25% glutaraldehyde for 30 min at room temperature. The culture supernatants were removed and the cells were stained with 5% SYBR Green in the dark for 30 min. Parasitemia was defined by the proportion of Alexa 488-A positive cells in 50,000 recorded events using LSR II analyzer (BD). The percentage of parasite growth was normalized with the DMSO vehicle control group and the highest-dosage group, and plotted as a dose-response curve in Prism 7.

P. berghei sporozoites = experiment: In vivo analysis of P. berghei liver parasite growth and transition to blood infection; set-up: species or system Plasmodium berghei
Procedure: Female BALB/c mice were infected with PbmCherryLuci sporozoites by either intravenous injection or infectious mosquito bite challenge. Mice (infected by either route) received either no treatment or were treated orally with WM382 (prepared as previously described) at doses and h post infection (hpi) as indicated. For i.v. injections, freshly isolated salivary gland sporozoites were filtered through glass wool to remove debris before 40,000 sporozoites were resuspended in 200 μL Schneider’s Insect Media immediately prior to injection. For infection by mosquito bite, the percent of mosquitoes that contained oocysts was used to place 5 infected mosquitoes in individual feeding cups (for example, if 83% of mosquitoes in the batch had oocysts then 6 mosquitoes were placed in each cup). Mice were anesthetised using ketamine/xylazine and placed on individual feeding cups to begin the infection. Mosquitoes were allowed to feed on the mice for 15 min and mice were rotated between feeding cups every min to promote probing and ensure that all mice were equally exposed to infectious mosquito bites. From day 3 – 30 post infection mice were monitored daily for the presence of parasites in Giemsa stained thin blood smears and considered to be protected from blood infection if they remained negative through this period.
In addition to monitoring thin blood smears, luciferase activity was used to measure liver infection (52 hpi), liver egress (55 hpi) and transition to initial blood infection (65 hpi) in mice infected intravenously. Briefly, mice were injected i.p. with 200 μL XenoLight D-Luciferin (PerkinElmer) and returned to their cage for 5 min prior to anesthesia by isofluorane inhalation for a further 5 min. Between 10 – 15 min post injection of D-luciferin, mice were maintained under isofluorane anesthesia and bioluminescent signal collected using an IVIS Lumina S5 system (PerkinElmer) with a medium binning factor and 3 min integration time. Bioluminescence emanating from a region of interest (ROI) covering the liver region (52 and 55 hpi) or whole animal (65 hpi) was quantified using Living Image software version 4.7.2 (PerkinElmer) and expressed as the total flux in photons/second (p/s). Background flux was measured using an identically sized ROI placed over the lower pelvic region below the liver (52 and 55 hpi) or uninfected mice (65 hpi) and is expressed as the limit of detection (LOD). The parasitemia of the first round of erythrocytic infection was measured at 65 hpi using a LSRFortessa X20 (Becton Dickinson) flow cytometer. Briefly, a drop of whole blood was collected from the tail in 200 μL human tonicity (HT) PBS and immediately analyzed. To identify infected blood cells, mCherry signal intensity was plotted against GFP signal intensity as a decoy reporter. The number of mCherry^+ / GFP^— events are reported per 1 × 10^6 whole blood cells with blood from uninfected mice used as a negative control.

P. berghei = experiment: Merosome transfer from treated HepG2 cultures to mice; assay type: in vivo, Plasmodium berghei; conditions: HepG2 cultures treated with 1 nM, washed
Procedure: To infect cells, freshly isolated PbmCherryLuci salivary gland sporozoites were resuspended in complete medium and 10^4 sporozoites added to each well (MOI 0.34) before spinoculation at 500 x g for 3 min. Sporozoites were allowed to infect cells for 3 h before washing with complete medium. […] The compound containing medium was changed the next morning before 48 hpi to prevent removal of detached cells and merosomes in the supernatant at later time points ([Sturm et al., 2006]). To measure inhibition of parasitised cell detachment in the treated cultures, each well was imaged for mCherry at 20x magnification using an Opera Phenix High Content Screening System (PerkinElmer) at 48 hpi (live cell microscopy) and again at 65 hpi following fixation with 4% formalin in PBS, and the number of mCherry^+ parasites counted using the Columbus Image Data Storage and Analysis System (PerkinElmer). Cell detachment was calculated as the percent of parasites lost from the monolayer between 48 – 65 hpi. The culture supernatant containing merosomes and detached parasitised cells from each well was collected at 65 hpi, washed once in complete media by centrifugation at 500 x g for 3 min, then i.v. injected into individual male Swiss mice. Daily Giemsa stained thin blood smears were monitored for patent blood infection as described previously.

[2] = i.v. sporozoites, 2 × 20 mpk oral
[3] = i.v. sporozoites, oral 20 mpk or 100 mpk b.i.d. at 36 and 48 hpi
[4] = mosquito bite infection, 20 mpk at 36 hpi
[5] = mosquito bite infection, 50 mpk at 36 hpi

| Compound | stage of arrest of blood-stage development (3D7 parasite cultures) | pharmacokinetic attributes [1] | EC50 (P. knowlesi; Plasmodium knowlesi) [pM] | EC50 (P. knowlesi) [pM] | delay to patency (P. berghei sporozoites; [2]) [days] | sterile protection against blood infection (P. berghei sporozoites; [2]) [%] | sterile protection against blood infection (P. berghei sporozoites; i.v. sporozoites, 2 × 100 mpk oral) [%] | killing of liver stages and liver egress by 55 hpi (P. berghei sporozoites; [3]) | parasite liver infection at 52 hpi (P. berghei sporozoites; [3]) | delay to patency (P. berghei sporozoites; [4]) [days] | protection from blood infection (P. berghei sporozoites; [4]) | delay to patency (P. berghei sporozoites; [5]) [days] | sterile protection (P. berghei sporozoites; [5]) [%] | protection from patent infection (P. berghei sporozoites; mosquito bite infection, single dose 100 mpk at 36 hpi) | protection from blood infection, prophylactic treatment (P. berghei sporozoites; single dose 50 mpk 4 h before mosquito bite infection) | blood infection of naive mice after i.v. injection of 65 hpi supernatants (P. berghei) |
| --- | --- | --- | --- | --- | --- | --- | --- | --- | --- | --- | --- | --- | --- | --- | --- | --- |
| CC(NC(=O)c1cccc(C(c2ccccc2)N2C(=N)NC(C)(C(C)C)CC2=O)c1)c1ccccc1 (racemic) [WM4] | arrested at late schizont stage | did not have desirable pharmacokinetic attributes |  |  |  |  |  |  |  |  |  |  |  |  |  |  |
| CCC1(CC)CC(=O)N([C@@H]2CCOc3ccc(C(=O)N[C@H]4CC(C)(C)Oc5ccccc54)cc32)C(=N)N1 [WM382] | arrested at late schizont stage |  | 200 | 180 ± 60 | > 4 | 50 | 100 | did not kill P. berghei liver stages or markedly prevent liver egress in vivo | no effect | 2 | all mice developed blood infection | 5 | 80 | protect all mice from developing patent infection | did not confer any protection | Blood infection was initiated in mice |
